Assay results: PubChem BioAssay AID2060615 (Molecular Pharmacology Branch, DTP, NCI, 2025)

Tested on: 496974-208-R-J2-PDC complex spheroids, growth % test/control
Experiment: Anticancer human tumor 496974-208-R-J2-PDC patient-derived pancreatic carcinoma cell line growth inhibition [CLK]
Conditions: for IC50: curve of first compound; for viability, T/C: stronger effect = lower value; active = viability on the fitted dose curve at most 10% of control; inactive = the rest
Method in brief: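 Patient-derived tumor cells grown as complex spheroids with HUVEC endothelial cells and mesenchymal stem cells, treated with drug combinations. Concentrations descend in half-log steps from near clinical Cmax, or from 10 microM if Cmax unknown.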

[1] = second compound 0.0316 µM, first compound 0.0316 µM
[2] = second compound 0.0316 µM, first compound 0.1 µM
[3] = second compound 0.0316 µM, first compound 0.316 µM
[4] = second compound 0.0316 µM, first compound 1 µM
[5] = second compound 0.1 µM, first compound 0.0316 µM
[6] = second compound 0.1 µM, first compound 0.1 µM
[7] = second compound 0.1 µM, first compound 0.316 µM
[8] = second compound 0.1 µM, first compound 1 µM
[9] = second compound 0.316 µM, first compound 0.0316 µM
[10] = second compound 0.316 µM, first compound 0.1 µM
[11] = second compound 0.316 µM, first compound 0.316 µM
[12] = second compound 0.316 µM, first compound 1 µM
[13] = second compound 1 µM, first compound 0.0316 µM
[14] = second compound 1 µM, first compound 0.1 µM
[15] = second compound 1 µM, first compound 0.316 µM
[16] = second compound 1 µM, first compound 1 µM
[17] = second compound 3.16 µM, first compound 0.0316 µM
[18] = second compound 3.16 µM, first compound 0.1 µM
[19] = second compound 3.16 µM, first compound 0.316 µM
[20] = second compound 3.16 µM, first compound 1 µM
[21] = second compound 10 µM, first compound 0.0316 µM
[22] = second compound 10 µM, first compound 0.1 µM
[23] = second compound 10 µM, first compound 0.316 µM
[24] = second compound 10 µM, first compound 1 µM
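Note: spheroids exposed to the drugs for 7 days before readout.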
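Throughout, for viability, T/C: 100% = DMSO vehicle control wells.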

CCN1CCN(Cc2ccc(Nc3ncc(F)c(-c4cc(F)c5nc(C)n(C(C)C)c5c4)n3)nc2)CC1 + CN1CCN(c2cc(C(=O)Nc3cc4cc(-c5cnn(C)c5)ccc4cn3)ccn2)CC1
< 3.16 nM: IC50 (second compound 0.316 µM) | IC50 (second compound 1 µM) | IC50 (second compound 3.16 µM) | IC50 (second compound 10 µM)
active: viability, T/C (second compound 0.316 µM, first compound 0.00316 µM) 6.01% | viability, T/C (second compound 0.316 µM, first compound 0.01 µM) 10.2% | viability, T/C [9] 8.8% | viability, T/C [10] 11.3% | viability, T/C [11] 13.7% | viability, T/C [12] 9.83% | viability, T/C (second compound 1 µM, first compound 0.00316 µM) 0.34% | viability, T/C (second compound 1 µM, first compound 0.01 µM) 0.41% | viability, T/C [13] 0.41% | viability, T/C [14] 0.39% | viability, T/C [15] 0.77% | viability, T/C [16] 2.79% | viability, T/C (second compound 3.16 µM, first compound 0.00316 µM) 0.34% | viability, T/C (second compound 3.16 µM, first compound 0.01 µM) 1.89% | viability, T/C [17] 1.33% | viability, T/C [18] 0.51% | viability, T/C [19] 1.22% | viability, T/C [20] 4.6% | viability, T/C (second compound 10 µM, first compound 0.00316 µM) 0.22% | viability, T/C (second compound 10 µM, first compound 0.01 µM) 0.34% | viability, T/C [21] 0.36% | viability, T/C [22] 0.29% | viability, T/C [23] 1.36% | viability, T/C [24] 2.46%
> 1000 nM: IC50 (second compound 0.0316 µM) | IC50 (second compound 0.1 µM)
inactive: viability, T/C (second compound 0.0316 µM, first compound 0.00316 µM) 90.4% | viability, T/C (second compound 0.0316 µM, first compound 0.01 µM) 87.9% | viability, T/C [1] 78.6% | viability, T/C [2] 81% | viability, T/C [3] 76.2% | viability, T/C [4] 87.7% | viability, T/C (second compound 0.1 µM, first compound 0.00316 µM) 79.5% | viability, T/C (second compound 0.1 µM, first compound 0.01 µM) 73% | viability, T/C [5] 72.8% | viability, T/C [6] 72.9% | viability, T/C [7] 68.2% | viability, T/C [8] 70.6%

C=C(F)C(=O)N1CCN(c2nc(OCC3CCCN3C)nc3c2CCN(c2cccc4cccc(Cl)c24)C3)CC1CC#N (centres undefined) + CNC(=O)c1ccc(Nc2nc(OC3CCCC3)c3c(-c4ccc5nc(C)oc5c4)c[nH]c3n2)c(OC)c1
4150 nM: IC50 (second compound 0.316 µM)
549 nM: IC50 (second compound 10 µM)
2320 nM: IC50 (second compound 3.16 µM)
2740 nM: IC50 (second compound 1 µM)
5460 nM: IC50 (second compound 0.0316 µM)
inactive: viability, T/C [1] 89% | viability, T/C [2] 91.7% | viability, T/C [3] 90.5% | viability, T/C [4] 90.6% | viability, T/C (second compound 0.0316 µM, first compound 3.16 µM) 91.4% | viability, T/C [5] 79.2% | viability, T/C [6] 73.6% | viability, T/C [7] 72.9% | viability, T/C [8] 76.1% | viability, T/C (second compound 0.1 µM, first compound 3.16 µM) 71.7% | viability, T/C [9] 80.4% | viability, T/C [10] 72.9% | viability, T/C [11] 73.5% | viability, T/C [12] 76.2% | viability, T/C (second compound 0.316 µM, first compound 3.16 µM) 63.8% | viability, T/C [13] 69.5% | viability, T/C [14] 68.5% | viability, T/C [15] 64.7% | viability, T/C [16] 64.8% | viability, T/C (second compound 1 µM, first compound 3.16 µM) 47.9% | viability, T/C [17] 59.8% | viability, T/C [18] 59.4% | viability, T/C [19] 55.8% | viability, T/C [20] 56.9% | viability, T/C (second compound 3.16 µM, first compound 3.16 µM) 47.5% | viability, T/C [21] 56.4% | viability, T/C [22] 52.2% | viability, T/C [23] 48.4% | viability, T/C [24] 45.4% | viability, T/C (second compound 10 µM, first compound 3.16 µM) 39.8%
4520 nM: IC50 (second compound 0.1 µM)
active: viability, T/C (second compound 0.0316 µM, first compound 10 µM) 4.85% | viability, T/C (second compound 0.1 µM, first compound 10 µM) 1.82% | viability, T/C (second compound 0.316 µM, first compound 10 µM) 5.04% | viability, T/C (second compound 1 µM, first compound 10 µM) 0.69% | viability, T/C (second compound 3.16 µM, first compound 10 µM) 1.05% | viability, T/C (second compound 10 µM, first compound 10 µM) 1.59%
